In one series the test system is healthy PBMCs. The series can be described thus: Seahorse Mito Stress Test (OCR) of healthy PBMCs after 4-hour in vitro treatment. It counts as cell-based, human. Here is the method:
(§1) PBMC and Monocyte isolation. 30-60 ml of fasting blood was collected into EDTA-containing Vacutainers (BD Mfr #364606). Blood then was diluted (1:1) with RPMI medium (Corning; Cat #17-105-CV) and applied to Histopaque gradient medium (Sigma-Aldrich; Cat #10771) using SepMate-50 (STEMCELL Technologies), and centrifuged at 1200 g for 10 minutes. Top layer contained the enriched peripheral blood mononuclear cells (PBMCs) which were collected and followed by centrifugation at 300 g for 10 minutes. The pellet was resuspended with ACK lysis buffer (Gibco; Cat. A1049201) and incubated at room temperature for 5 minutes to remove residual red blood cells. Next, the enriched PBMCs were washed twice with RPMI medium. All PBMC samples were subjected to the baseline Seahorse Mito Stress Test. When available, the remaining cells were used for cytokine mRNA quantitative PCR and in vitro assays. For monocyte isolation, a magnetic bead-based negative-selection monocyte isolation kit (Miltenyi Biotec, 130-096-537) was used per the manufacturer's instructions. Briefly, antibody-conjugated magnetic bead solution was added to isolated PBMCs resuspended in RPMI containing 0.5% BSA and incubated for 20 minutes at 4° C., followed by magnetic column binding and elution. The procedure was repeated once to improve the purity of monocytes. The monocytes were washed once with RPMI prior to subsequent experiments.
Seahorse Mito Stress Test. Oxygen consumption rate (OCR) of freshly isolated PBMCs was assessed using a Seahorse XFe24 analyzer (Agilent Technologies). Briefly, purified PBMCs were resuspended in Seahorse base medium (Agilent Technologies, supplemented with 1 mM pyruvate, 2 mM glutamine, and 10 mM glucose, pH 7.4), and added 10^6 cells/well at equal volume of 500 μL in a Seahorse 24-well plate. The cells were maintained in a non-CO2 incubator and allowed to settle for 30 minutes at 37° C. Next, the plate was centrifuged at 40 g for 10 minutes at room temperature without application of the brake to help cells attach to the bottom of the plate. Drugs used in the assay: 5 μM oligomycin A (Sigma-Aldrich; Cat. 75351), 3 μM Trifluoromethoxy carbonylcyanide phenylhydrazone (FCCP) (Sigma-Aldrich; Cat. C2920), 1 μM Rotenone (Sigma-Aldrich; Cat. […]), 1 μM Antimycin A (Sigma-Aldrich; Cat. […]), 0.5 mM TMPD (Sigma-Aldrich; Cat. T7394) and 10 mM Ascorbate (Sigma-Aldrich; Cat. 95209).
PBMC and Monocyte Culture. Freshly isolated PBMCs or Monocytes from healthy or HF subjects were resuspended with RPMI medium plus 10% heat inactivated FBS. PBMCs (10^6 cells/well) were seeded in Seahorse 24-well plates and incubated at 37° C. in CO2 incubator with various proinflammatory triggers (Vehicle, MitoDAMP, LPS) and compounds (NR, MCC 950, MitoTempo, or LMT-28). After 4 hours incubation, the plate was centrifuged at 40 g for 10 minutes at room temperature without application of the brake to help cells attach to the bottom of the plate. The cells were washed twice and then brought up to 500 μL using Seahorse base medium (Agilent Technologies, supplemented with 1 mM pyruvate, 2 mM glutamine, and 10 mM glucose, pH 7.4).

Series [1] deals with PBMCs of heart failure patients. Description: Seahorse OCR of HF PBMCs after 4-hour in vitro NR treatment. The following applies: HF PBMC, 4-hour 1 mM NR vs vehicle. It counts as cell-based, human. Here is the method:
as §1, with “Briefly, antibody-conjugated magnetic bead solution was added to isolated PBMCs resuspended in RPMI containing 0.5% BSA and incubated for 20 minutes at 4° C., followed by magnetic column binding and elution. The procedure was repeated once to improve the purity of monocytes. The monocytes were washed once with RPMI prior to subsequent experiments.” left out
Seahorse Mito Stress Test. Oxygen consumption rate (OCR) of freshly isolated PBMCs was assessed using a Seahorse XFe24 analyzer (Agilent Technologies). […]

The subject of series [2] is secreted IL6 protein of healthy PBMC. Description: IL6 ELISA of supernatant of cultured healthy PBMCs. The following applies: 4-hour 1 mM NR in the presence of MitoDAMP. It is filed as cell-based, human. Here is the method: IL6 ELISA. Isolated PBMCs (4×10^6 cells per sample) from healthy or HF participants were resuspended in RPMI medium containing 10% heat-inactivated FBS and treated with various proinflammatory triggers (Vehicle, MitoDAMP, LPS) and compounds (NR, MCC 950, MitoTempo, or LMT-28) to final PBMC concentrations of 10×10^6 cells per mL. See below for detailed descriptions of the reagents. The samples were incubated in Eppendorf tubes at 37° C. in a 5% CO2 incubator with caps open for times designated in the brief description of drawings. The cultured PBMC samples were centrifuged at 8,000 RPM at room temperature. The supernatant was used for ELISA per the manufacture protocol using R&D Systems human IL6 kit (Cat #DY206-05). The cell pellets were stored in −80° C.
For orientation: In an ELISA, binding on a coated surface is turned into a signal by an enzyme label.

Series [3] in a line: Randomized trial of NR in HFrEF: whole blood NR and NAD+ levels. It is filed as in vivo, human. How it is done:
At Week 0 (Randomization), participants underwent history, repeat 6MWD assessment and baseline transthoracic echocardiogram (FIG. 15). NR or matching placebo were started at the initial dose of 250 mg orally twice daily, then up-titrated by 250 mg twice daily each week to a final dose of 1000 mg twice daily by Week 3. Participants were continued on the 1000 mg twice daily dose until the final clinic visit on Week 12. Blood draws for study labs, including levels of NR and NAD were obtained at Weeks 0, 2, 4 and 12. Medications were dispensed at Weeks 0, 2, 4 and 8, with pill counts performed at Weeks 2, 4, 8 and 12. A telephone visit was performed at Week 6. The final echocardiogram and PBMC mitochondrial respiration assays were performed at Week 12. Study labs were performed by the UW Research Testing Service, except for NR and NAD+ assays, which were performed by the Pharmacokinetics Laboratory, Department of Pharmaceutics, UW School of Pharmacy. Procedures for blood collection and processing, as well as NR and NAD+ assay procedures, have been described previously (Airhart S E, et al., PLoS One. 2017, 12:e0186459).

The subject of series [4] is peripheral blood mononuclear cells (PBMCs). Description: Randomized trial of NR in HFrEF: PBMC mitochondrial respiration. The following applies: Week 12 vs Week 0, NR group. It counts as in vivo, human. How it is done:
Peripheral Blood Mononuclear Cell (PBMC) Mitochondrial Function. PBMCs were isolated from freshly-collected whole blood by centrifugation in Sepmate™-50 PBMC isolation tubes (STEMCELL Technologies, Vancouver, BC, Canada; Cat. 85450). Isolated PBMCs were resuspended in Seahorse XF® medium (Agilent, Cat. 102353-100) and then plated (10^6 cells/well) onto Seahorse® (Agilent) 24-well plates. PBMC mitochondrial respiratory function was assessed by measuring the oxygen consumption rate (OCR) at baseline and maximal stimulated conditions as described in Zhou B, et al. (J Clin Invest. 2020, 130:6054-6063 (Experimental Example 1)). Exploratory Endpoints. The following endpoints were considered exploratory, as the Study was underpowered to detect differences.

Where [5] appears, read: healthy PBMC, 4-hour 1 mM NR vs vehicle, absence of MitoDAMP.

Entries after “also recorded” stand apart in the source; their conditions may differ.

In the case of `NC(=O)c1ccc[n+]([C@@H]2O[C@H](CO)[C@@H](O)[C@H]2O)c1` [NR, nicotinamide riboside], in the series on healthy PBMCs (setting [5]), the “basal OCR” value is “increased” and the “maximal OCR” value was “increased”. The “MitoDAMP-induced decline of maximal OCR” value in the series on healthy PBMCs (healthy PBMC, 4-hour MitoDAMP with 1 mM NR) is “partially prevented”. For the same molecule, the “maximal OCR” value in the series with healthy PBMCs (healthy PBMCs, 4-hour 10 ng/mL LPS with 1 mM NR) is “enhancing”. For the same molecule, in series [1], the “basal OCR” value is reported as “increased” and the “maximal OCR” value is recorded as “increased”. Besides, in series [2], the IL6 secretion result was “reduction”. In series [3] (NR group), the “changes in whole blood NAD+ levels on-trial (Week 12-Week 0), Mean+SE” value was 30 ± 20 µM. The “blood NAD+ levels during the up-titration period” value in series [3] (NR group, Week 0 to Week 4, maintained through Week 12) is reported as “dose-dependent increase”. Further, in series [3] (Week 4 visit, 1000 mg NR dose), the “whole blood NAD+ levels at 4 h post-dose vs pre-NR dose” value was “unchanged” and the “whole blood NR levels 4 h post-dose vs pre-dose” value is on record as “tended to increase; also recorded: rose significantly”. Further, the “whole blood NAD+ levels” value in series [3] (clinically-stable HF patients, NR treatment) was “doubled”. For the same molecule, in series [3] (human, whole blood, oral, 1000 mg twice daily, NR group, read-out: on-trial changes in whole blood NR levels (Week 12-Week 0), Mean±SE), the concentration at 12 weeks was 2 nM. Besides, in series [3] (trough, throughout the study), the “blood NR level before the daily dose was administered” value is “low and variable”. Also, in series [4], the “baseline (basal) PBMC mitochondrial respiration rates” value is recorded as “not changed”. Moreover, the “maximal PBMC respiration” value in series [4] (did not reach statistical significance) is given as “marginal increase”.
